Reference: patent publication US5869469A, “Phosphonocarboxylate compounds for treating amyloidosis” (Queen's University at Kingston, priority 1997, dated 1999)
Structures can show the parent of a compound that is named as a salt.

Columns and labels:
Aβ peptide = experiment: in vitro circular dichroism (CD) assay of β-sheet secondary structure formation; settings: Aβ peptide with test compound in Tris-HCl buffer pH 7, incubated 0 or 24 hours at 37° C., CD at 25° C.
Text: It is known that amyloidogenic peptides or proteins which have formed amyloid deposits or plaques have a significant amount of β-sheet secondary structure, while the unaggregated peptide or protein generally has less β-sheet structure. It is believed that the ability of a candidate therapeutic compound to prevent the formation of β-sheet secondary structure in vitro may be correlated with the ability of the compound to inhibit amyloidogenesis in vivo. Accordingly, phosphonate compounds were assayed for ability to prevent the formation of β-sheet secondary structure in an in vitro circular dichroism (CD) assay.
Aβ is a 40 amino acid protein associated with Alzheimer's disease. Aβ peptide was prepared and purified as described in Fraser, P. E. et al., Biochemistry 31, 10716 (1992). Briefly, the peptide was synthesized by standard solid-phase techniques and purified by HPLC according to well known procedures.
All CD experiments were performed on a commercially available instrument. The cell was maintained at 25° C. using a circulating water bath. Computer-averaging of traces was performed to improve signal-to-noise ratios. The solvent signal was subtracted. CD experiments were performed for each test compound according to the following procedure:
A stock solution of purified peptide was made by dissolving the peptide in phosphate-buffered saline (PBS) to a concentration of 2 mg/ml. […]

amyloid peptide = amyloid peptide solubility assay (overnight incubation, centrifugation, soluble peptide determination); settings: compound and amyloid peptide incubated together overnight, then centrifugation; preliminary result
[1] = system: cortical/hippocampal neuronal cultures; experiment: neurotoxicity in cortical/hippocampal neuronal cultures; type: cell-based; settings: concentrations ranging from 10^-7 M to 10^-4 M

O=C(O)CCOCCP(=O)(O)O [2-carboxyethoxyethylphosphonic acid]
β-sheet formation (minimum at 218 nm in CD spectrum versus control) (Aβ peptide): did not appear to prevent β-pleated sheet formation

O=C(O)P(=O)(O)O [Phosphonoformate sodium salt, Trisodium phosphonoformate]
β-sheet formation (minimum at 218 nm in CD spectrum versus control) (Aβ peptide): significantly and reproducibly reduce the amount of β-sheet formation | effect on amyloid peptide solubility (amount of soluble peptide) (amyloid peptide): little effect on amyloid peptide solubility | neurotoxicity [1]: no significant toxicity
